US7968526B2, “Antisense oligonucleotides directed to ribonucleotide reductase R2 and uses thereof in the treatment of cancer” (Lorus Therapeutics Inc., priority 2003, dated 2011)
Entries after “also recorded” stand apart in the source; their conditions may differ.

Experiments:
[1] = tested on: Human taxol-resistant promyelocytic leukaemia cells (HL-60); assay: HL-60 taxol-resistant promyelocytic leukaemia tumour in SCID mice (2.7); assay type: in vivo, human cells in mice; details: SEQ ID NO:1 10 mg/kg i.v. every other day
Procedure: BxPC-3 is a gemcitabine resistant call line. […] Gemcitabine was administered intravenously every three days at a dose of 100 mg/kg. Antitumour activities were estimated by the inhibition of tumour volume, which was measured with caliper. Each point represents mean tumour volume calculated from 10 animals per experimental group. […] Hela S3 is a hydroxyurea resistant cell line. […] Hydroxyurea was administered intraperitoneally every day at a dose of 250 mg/kg for 10 days. Cisplatin was administered intravenously once a week for three weeks at a dose of 4 mg/kg. Antitumour activities were estimated by the inhibition of tumour volume, which was measured with caliper. Each point represents mean tumour volume calculated from 10 animals per experimental group. […] Cisplatin was administered intravenously once a week for three weeks at a dose of 4 mg/kg. Taxol was administered intravenously once a week for three weeks at a dose of 10 mg/kg. Antitumour activities were estimated by the inhibition of tumour volume, which was measured with caliper. Each point represents mean tumour volume calculated from 10 animals per experimental group. […] Taxol was administered i.p. once a week at a dose of 10 mg/kg. Antitumour activities were estimated by the inhibition of tumour volume (FIG. 12A), which was measured with calipers. Each point represents mean tumour volume calculated from 10 animals per experimental group. Animals were sacrificed and tumour weights taken at the end of the study (FIG. 12C). […] Cisplatin was administered intravenously once a week for four weeks at a dose of 4 mg/kg. Taxol was administered intravenously once a week for four weeks at a dose of 20 mg/kg. Antitumour activities were estimated by the inhibition of tumour volume, which was measured with caliper. Each point represents mean tumour volume calculated from 9-10 animals per experimental group. […] Cisplatin was administered intravenously once a week for four weeks at a dose of 4 mg/kg. Antitumour activities were estimated by the inhibition of tumour volume, which was measured with caliper. Each point represents mean tumour volume calculated from 10 animals per experimental group. At the end of the study the animals were sacrificed and tumours weighed. […] Taxol was administered i.p. once a week at a dose of 10 mg/kg. Anti-tumour activity was estimated by the inhibition of tumour volume, which was measured with caliper. Each point represents mean tumour volume calculated from 10 animals per experimental group. […] Antitumour activities were estimated by the inhibition of tumour volume, which was measured with caliper. Each point represents mean tumour volume calculated from 10 animals per experimental group. Tumour weights were measured after animals were sacrificed at the end of the treatment. […]

[2] = tested on: HeLa S3 human cervical cancer cells; assay: HeLa S3 cervical tumour growth in SCID mice (3.11); assay type: in vivo, human cells in mice
Procedure: Treatments lasted for 14 days thereafter. Antitumour activities were estimated by the inhibition of tumour volume, which was measured with a caliper on four different occasions over the treatment period. Each point represents mean tumour volume calculated from 5 animals per experimental group. […] Control animals (control) received saline alone for the same period. At the end of the treatments, the animals were sacrificed, tumours were excised and their weights were measured. Each bar represents mean tumour weight calculated from 6 animals per experimental group. […] Treatments lasted for 24 days thereafter. Antitumour activities were estimated by the inhibition of tumour volume, which was measured with a caliper at two-day intervals over the treatment period. Each point represents mean tumour volume calculated from 4 animals per experimental group. […] Treatments lasted for 24 days thereafter. Antitumour activities were estimated by the inhibition of tumour volume, which was measured with a caliper at two-day intervals over the treatment period. Each point represents mean tumour volume calculated from 4 animals per experimental group. […] Each point represents mean tumour volume calculated from 5 animals per experimental group. […] Antitumour activities were estimated by the inhibition of tumour volume, which was measured with a caliper on four different occasions over 16-day period. Each point represents mean tumour volume calculated from 5 animals per experimental group. […] Antitumour activities were estimated by the inhibition of tumour volume, which was measured with a caliper at two-day intervals over the treatment period. Each point represents mean tumour volume calculated from 5 animals per experimental group. […] Antitumour activities were estimated by the inhibition of tumour volume, which was measured with a caliper at various time intervals over the span of 30 days. Each point represents mean tumour volume calculated from 6 animals per experimental group. […] Antitumour activities were estimated by the inhibition of tumour volume, which was measured with a caliper. […]

[3] = tested on: Caki renal tumour xenografts; assay: Caki renal tumour xenografts in SCID/beige mice (immune stimulation); assay type: in vivo, human cells in mice; details: Caki renal tumour xenografts in SCID/beige mice (lack B, T and NK cell function)
Procedure: To directly determine whether SEQ ID NO:1 treatment results in CpG stimulation of NK-mediated anti-tumour activity, the efficacy of SEQ ID NO:1 on human tumour xenografts in SCID/beige mice was assessed (FIG. 32). SCID/beige mice lack B, T and NK cell function and as such these mice cannot mount a significant innate or acquired immune response.

[4] = 21-day continuous infusion toxicity study in the monkey with a 3-week recovery; assay type: in vivo
Procedure: A second repeat-dose study was conducted in monkeys to evaluate the toxicity associated with administration of test article by continuous intravenous infusion for 21 days followed by a 21-day recovery period. Twenty-eight monkeys were administered one of the following dose levels; vehicle control, 2 mg/kg/day, 10 mg/kg/day, or 50 mg/kg/day. Toxicokinetic samples were collected prior to the initiation of infusion, approximately 8, 24, 48, and 96 hours following the start of infusion, and on Day 20 prior to the change in dose-syringes. […] As in the previous rat study, the 2 mg/kg/day dose level was identified as the no-adverse-effect-level (NOAEL).

[5] = Human Cervical Carcinoma^2 in SCID mice, Day 17 after tumour implantation
[6] = continuous i.v. infusion 21 days

For “5′-GGCTAAATCGCTCCACCAAG-3′ (all phosphorothioate, sugars by position and methylation of C not given here) [SEQ ID NO: 1, fully phosphorothioated antisense oligonucleotide that hybridizes to the coding region of R2 mRNA]”, the “Tumour weight as % of saline control” value ([1]; HL-60 (leukemia), Taxol resistant, SCID, Taxol 10 mg/kg i.p. weekly) was 38%, the “Antitumour effect (FIG. 15)” value ([1]; HL-60 taxol-resistant, SCID mice, taxol 10 mg/kg i.p. weekly) was “significant reduction of tumour weight compared to saline control” and the “Inhibitory effect on tumour growth (tumour volume and weight, FIG. 23)” value ([2]; HeLa S3, SCID mice, 10 mg/kg i.v. every other day, 14 days) was “strong inhibitory effects on the growth of human cervical carcinoma”. For the same substance, the “Inhibition of tumour size” value [2, 5] was “approximately 60% in SCID mice on Day 17fter”, the “Inhibition of tumour weight” value [2, 5] was “approximately 60% in SCID mice on Day 17fter” and the “Anti-tumour effect (FIG. 32)” value [3] was “effectively treated; also recorded: equivalent in extent and kinetics to that obtained in the SCID mouse model; also recorded: anti-tumour activity is specific to the R2 complementary sequence”. The Deaths ([4]; 2, 10 or 50 mg/kg/day continuous i.v. infusion 21 days) was “No unplanned deaths”, the Reversibility of changes ([4]; 3-week post-dosing treatment-free period) was “reversed either completely or partially” and the Toxicity findings ([4]; 10 and 50 mg/kg/day continuous i.v. infusion 21 days) was “splenic histiocytosis, anticoagulant effects, complement activation, and continuous infusion effects”. The “Target organs (histopathologic changes)” value [4, 6] was “kidneys, liver, and lymph nodes” and the “no-adverse-effect-level (NOAEL)” value [4, 6] was 2 mg/kg/day.
